Patent US9243027B2, “TGR5 modulators and methods of use thereof” (Intercept Pharmaceuticals, Inc., priority 2007, dated 2016)

Molecular target: T1, TGR5 receptor (Homo sapiens, UniProt Q8TDU6)
T1 sequence (Q8TDU6 1-330): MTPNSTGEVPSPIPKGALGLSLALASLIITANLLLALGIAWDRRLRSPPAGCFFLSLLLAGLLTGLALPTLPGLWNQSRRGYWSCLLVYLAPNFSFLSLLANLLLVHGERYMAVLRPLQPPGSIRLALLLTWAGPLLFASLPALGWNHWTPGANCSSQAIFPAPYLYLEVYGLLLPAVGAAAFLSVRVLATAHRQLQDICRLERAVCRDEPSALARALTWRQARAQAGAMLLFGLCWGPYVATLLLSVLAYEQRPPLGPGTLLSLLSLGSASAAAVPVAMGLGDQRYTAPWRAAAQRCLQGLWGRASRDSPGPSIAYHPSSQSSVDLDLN
Assay: Potency and efficacy on TGR5 receptor, in vitro assays (Kawamata 2003)
Format: cell-based
Description: The potency and efficacy of the compounds of the invention on TGR5 receptor was evaluated using in vitro assays.

## C[C@H](CCC(=O)O)[C@H]1CCC2C3C(CC[C@@]21C)[C@@]1(C)CC[C@@H](O)C[C@H]1C[C@H]3O (stereo partly shown) [CDCA, ChenoDeoxyCholicAcid]
  TGR5 Data Efficacy: 100%
